Test results: doi:10.1101/2023.12.04.569845, “Identification of 4-(6-((2-methoxyphenyl)amino)pyrazin-2-yl)benzoic acids as CSNK2A inhibitors with antiviral activity and improved selectivity over PIM3” (bioRxiv, 2023)
Read-outs that look alike come from different tables or passages of the source.

Experiments:
Experiment in all cases: biochemical
Set-up in all cases: Thermal shift (DSF, SYPRO Orange) Tm shift of recombinant kinase domains at 10 uM compound
[1] = biological target: T1, DYRK2 (Homo sapiens, UniProt Q92630)
T1 sequence (Q92630 1-601): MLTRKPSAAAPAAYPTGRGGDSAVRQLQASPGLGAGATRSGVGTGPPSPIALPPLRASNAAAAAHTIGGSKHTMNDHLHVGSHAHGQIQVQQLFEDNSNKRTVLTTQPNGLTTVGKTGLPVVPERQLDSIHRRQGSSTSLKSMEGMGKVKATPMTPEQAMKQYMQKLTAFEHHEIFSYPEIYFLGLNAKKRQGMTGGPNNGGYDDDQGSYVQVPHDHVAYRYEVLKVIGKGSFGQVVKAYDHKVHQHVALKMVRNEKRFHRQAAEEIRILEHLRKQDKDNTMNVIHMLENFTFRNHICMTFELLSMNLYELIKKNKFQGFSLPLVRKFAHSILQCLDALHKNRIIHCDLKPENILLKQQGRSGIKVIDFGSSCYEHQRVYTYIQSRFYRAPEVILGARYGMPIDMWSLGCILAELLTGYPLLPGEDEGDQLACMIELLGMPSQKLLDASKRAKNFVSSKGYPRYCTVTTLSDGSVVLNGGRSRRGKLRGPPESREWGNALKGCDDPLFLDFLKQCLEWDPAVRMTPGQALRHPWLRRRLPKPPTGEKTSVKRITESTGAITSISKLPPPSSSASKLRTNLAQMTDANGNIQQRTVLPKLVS

[2] = biological target: T2, CASK (Homo sapiens, UniProt O14936)
T2 sequence (O14936 1-926): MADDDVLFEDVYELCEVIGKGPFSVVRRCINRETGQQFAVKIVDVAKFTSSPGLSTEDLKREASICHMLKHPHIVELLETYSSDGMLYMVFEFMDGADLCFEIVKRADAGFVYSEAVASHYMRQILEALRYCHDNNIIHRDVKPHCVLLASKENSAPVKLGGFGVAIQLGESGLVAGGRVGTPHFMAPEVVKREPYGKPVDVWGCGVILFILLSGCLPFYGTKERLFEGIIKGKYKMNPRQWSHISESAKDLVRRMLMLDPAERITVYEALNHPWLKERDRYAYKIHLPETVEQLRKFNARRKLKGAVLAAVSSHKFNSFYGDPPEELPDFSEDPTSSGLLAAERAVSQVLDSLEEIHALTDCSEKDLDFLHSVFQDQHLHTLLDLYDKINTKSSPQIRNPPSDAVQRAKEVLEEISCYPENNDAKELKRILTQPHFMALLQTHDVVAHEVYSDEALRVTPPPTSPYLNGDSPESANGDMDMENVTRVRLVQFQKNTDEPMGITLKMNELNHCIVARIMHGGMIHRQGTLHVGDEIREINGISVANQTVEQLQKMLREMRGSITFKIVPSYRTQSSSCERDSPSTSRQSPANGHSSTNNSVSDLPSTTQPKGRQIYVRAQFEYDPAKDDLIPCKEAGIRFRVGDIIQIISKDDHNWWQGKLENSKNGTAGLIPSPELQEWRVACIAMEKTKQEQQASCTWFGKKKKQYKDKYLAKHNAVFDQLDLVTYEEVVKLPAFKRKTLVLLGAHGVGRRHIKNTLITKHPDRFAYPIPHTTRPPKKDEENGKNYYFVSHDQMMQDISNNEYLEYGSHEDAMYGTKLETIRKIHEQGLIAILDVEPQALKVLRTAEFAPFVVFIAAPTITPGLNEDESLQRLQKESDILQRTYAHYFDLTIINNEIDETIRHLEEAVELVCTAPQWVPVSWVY

[3] = biological target: T3, MARK4 (Homo sapiens, UniProt Q96L34)
T3 sequence (Q96L34 1-752): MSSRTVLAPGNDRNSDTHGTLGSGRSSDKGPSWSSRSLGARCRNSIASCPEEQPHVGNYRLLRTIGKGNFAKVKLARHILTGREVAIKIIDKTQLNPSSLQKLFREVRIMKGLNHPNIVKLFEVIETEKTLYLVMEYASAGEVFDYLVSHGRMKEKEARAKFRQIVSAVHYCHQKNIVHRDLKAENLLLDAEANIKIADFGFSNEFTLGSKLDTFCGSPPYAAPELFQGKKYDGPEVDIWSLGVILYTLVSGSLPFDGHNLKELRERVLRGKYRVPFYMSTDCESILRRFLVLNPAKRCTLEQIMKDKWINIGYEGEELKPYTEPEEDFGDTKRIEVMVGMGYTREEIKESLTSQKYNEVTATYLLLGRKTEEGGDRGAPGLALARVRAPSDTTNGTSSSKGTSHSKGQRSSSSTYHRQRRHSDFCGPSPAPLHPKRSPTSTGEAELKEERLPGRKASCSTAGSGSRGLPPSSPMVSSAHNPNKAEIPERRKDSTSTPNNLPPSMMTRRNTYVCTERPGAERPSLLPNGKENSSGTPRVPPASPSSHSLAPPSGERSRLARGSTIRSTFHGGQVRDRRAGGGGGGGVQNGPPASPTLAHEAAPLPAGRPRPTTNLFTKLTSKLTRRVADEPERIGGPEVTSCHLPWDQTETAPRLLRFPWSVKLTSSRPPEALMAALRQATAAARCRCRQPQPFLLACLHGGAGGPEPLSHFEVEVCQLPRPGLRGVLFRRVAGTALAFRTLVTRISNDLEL

In the case of COc1ccc(OC(C)C)cc1Nc1cncc(-c2ccc(C(=O)O)cc2)n1 [7c], the ΔTm at 10 µM ([1]; read-out: 7c) is reported as 9 °C, the ΔTm at 10 µM ([2]; read-out: 7c) is reported as 0 °C and the ΔTm at 10 µM ([3]; read-out: 7c) is reported as 0 °C.
CC(C)Nc1ccc2cnn(-c3cncc(-c4ccc(C(=O)O)cc4)n3)c2c1 [compound 2, 2] showed a ΔTm at 10 µM ([1]; read-out: 2) of 12 °C, a ΔTm at 10 µM ([2]; read-out: 2) of 0 °C and a ΔTm at 10 µM ([3]; read-out: 2) of 1 °C.
CC(C)Oc1ccc2ccn(-c3cncc(-c4ccc(C(=O)O)cc4)n3)c2c1 [6c] gave a ΔTm at 10 µM ([1]; read-out: 6c) of 11 °C, a ΔTm at 10 µM ([2]; read-out: 6c) of 1 °C and a ΔTm at 10 µM ([3]; read-out: 6c) of 1 °C.
